pIC50: −log10 of the molar value.
Assays:
pERK level in H358 cells = experiment: pERK and ERK protein content assay in H358 cells (ELISA); assay type: cell-based; conditions: Homo sapiens, NCI-H358, pERK/ERK ratio vs DMSO group, compound 1 μM, 24 h, read-out: Inhibition rate (%)
Method: H358 cells were seeded in a 24-well plate. After one day of growth, a test compound (at a concentration of 1 μM) was added. After 24 h of action of the compound, the cells were lysed, and the cell lysate was transferred to a 96-well ELISA plate. The levels of pERK and ERK in the lysate were measured using an ELISA kit (abcam 176660). The ratio of pERK to ERK was calculated and compared with that of the DMSO group, and the percentage of inhibition of pERK activity by the compound was calculated.

H358 cells = experiment: Antiproliferative activity against H358 cells (Cell Titer Glow, ultra-low attachment plate); assay type: cell-based; conditions: Homo sapiens, NCI-H358, 72 h, three days after addition of compound
Method: 2500 H358 cells were seeded in a 96-well ultra-low attachment plate (corning, 7007). After one day of growth, a serially diluted compound (a maximum concentration of 5 μM, 5-fold dilution, a total of five doses) was added. Three days after the addition of the compound, Cell Titer Glow (Promega, G9681) was added to evaluate pellet growth, and the IC50 value was calculated.

Row | Structure (SMILES) | pIC50 (H358 cells) | inhibition at 1 µM (pERK level in H358 cells)
1 | C=CC(=O)N1CC2(CCN(c3nc(N4CC(CN(C)CCOC)C4)nc4c(OCC(F)(F)F)c(-c5c(C)ccc6[nH]ncc56)c(C5CC5)cc34)CC2)C1 [Compound 5] | > 6.52 | > 90%
2 | C=CC(=O)N1CC2(CCN(c3nc(N4CC(N(CC)CCO)C4)nc4c(OCC(F)(F)F)c(-c5c(C)ccc6[nH]ncc56)c(C5CC5)cc34)CC2)C1 [Compound 22] | > 6.52 | > 90%
3 | C=CC(=O)N1CC2(CCN(c3nc(N4CC(N(C)CCCO)C4)nc4c(OCC(F)(F)F)c(-c5c(C)ccc6[nH]ncc56)c(C5CC5)cc34)CC2)C1 [Compound 23] | > 6.52 | > 90%
4 | C=CC(=O)N1CC2(CCN(c3nc(N4CC(N(CC)CCCO)C4)nc4c(OCC(F)(F)F)c(-c5c(C)ccc6[nH]ncc56)c(C5CC5)cc34)CC2)C1 [Compound 24] | > 6.52 | > 90%
5 | C=CC(=O)N1CC2(CCN(c3nc(N4CC(N5CCSCC5)C4)nc4c(OCC(F)(F)F)c(-c5c(C)ccc6[nH]ncc56)c(C5CC5)cc34)CC2)C1 [Compound 25] | 6.00 to 6.52 | > 90%
6 | C=CC(=O)N1CC2(CCN(c3nc(N4CC(N5CC[S+]([O-])CC5)C4)nc4c(OCC(F)(F)F)c(-c5c(C)ccc6[nH]ncc56)c(C5CC5)cc34)CC2)C1 [Compound 26] | 6.00 to 6.52 | 50 to 90%
7 | C=CC(=O)N1CC2(CCN(c3nc(N4CC(N5CCS(=O)(=O)CC5)C4)nc4c(OCC(F)(F)F)c(-c5c(C)ccc6[nH]ncc56)c(C5CC5)cc34)CC2)C1 [Compound 27] | 6.00 to 6.52 | 50 to 90%
8 | C=CC(=O)N1CC2(CCN(c3nc(N4CC(N5CC6(CCC6)C5)C4)nc4c(OCC(F)(F)F)c(-c5c(C)ccc6[nH]ncc56)c(C5CC5)cc34)CC2)C1 [Compound 29] | > 6.52 | > 90%
9 | C=CC(=O)N1CC2(CCN(c3nc(N4CC(N5CC6(COC6)C5)C4)nc4c(OCC(F)(F)F)c(-c5c(C)ccc6[nH]ncc56)c(C5CC5)cc34)CC2)C1 [Compound 30] | > 6.52 | > 90%
10 | C=CC(=O)N1CC2(CCN(c3nc(N4CC(N5CC6(CSC6)C5)C4)nc4c(OCC(F)(F)F)c(-c5c(C)ccc6[nH]ncc56)c(C5CC5)cc34)CC2)C1 [Compound 31] | > 6.52 | > 90%
11 | C=CC(=O)N1CC2(CCN(c3nc(N4CC(N5CC6(CN(C)C6)C5)C4)nc4c(OCC(F)(F)F)c(-c5c(C)ccc6[nH]ncc56)c(C5CC5)cc34)CC2)C1 [Compound 32] | > 6.52 | > 90%
12 | C=CC(=O)N1CC2(CCN(c3nc(N4CC(N5CC6(CCOCC6)C5)C4)nc4c(OCC(F)(F)F)c(-c5c(C)ccc6[nH]ncc56)c(C5CC5)cc34)CC2)C1 [Compound 33] | 6.00 to 6.52 | 50 to 90%
13 | C=CC(=O)N1CC2(CCN(c3nc(N4CC(N5CCC56CC6)C4)nc4c(OCC(F)(F)F)c(-c5c(C)ccc6[nH]ncc56)c(C5CC5)cc34)CC2)C1 [Compound 34] | > 6.52 | > 90%
14 | C=CC(=O)N1CC2(CCN(c3nc(N4CC(N5CCC6(CC6)C5)C4)nc4c(OCC(F)(F)F)c(-c5c(C)ccc6[nH]ncc56)c(C5CC5)cc34)CC2)C1 [Compound 35] | > 6.52 | > 90%
15 | C=CC(=O)N1CC2(CCN(c3nc(N4CC(N5CCC6(CC5)CC6)C4)nc4c(OCC(F)(F)F)c(-c5c(C)ccc6[nH]ncc56)c(C5CC5)cc34)CC2)C1 [Compound 36] | 6.00 to 6.52 | 50 to 90%
16 | C=CC(=O)N1CC2(CCN(c3nc(N4CCC(N5CC6(CC6)C5)C4)nc4c(OCC(F)(F)F)c(-c5c(C)ccc6[nH]ncc56)c(C5CC5)cc34)CC2)C1 (stereo not shown) [Compound 37] | > 6.52 | > 90%
17 | C=CC(=O)N1CC2(CCN(c3nc(N4CCC(N5CC6(CC6)C5)CC4)nc4c(OCC(F)(F)F)c(-c5c(C)ccc6[nH]ncc56)c(C5CC5)cc34)CC2)C1 [Compound 38] | 6.00 to 6.52 | > 90%
18 | C=CC(=O)N1CC2(CCN(c3nc(N4CC(n5cccc5)C4)nc4c(OCC(F)(F)F)c(-c5c(C)ccc6[nH]ncc56)c(C5CC5)cc34)CC2)C1 [Compound 39] | 6.00 to 6.52 | 50 to 90%
19 | C=CC(=O)N1CC2(CCN(c3nc(N4CC(n5cccn5)C4)nc4c(OCC(F)(F)F)c(-c5c(C)ccc6[nH]ncc56)c(C5CC5)cc34)CC2)C1 [Compound 40] | < 6.00 | 50 to 90%
20 | C=CC(=O)N1CC2(CCN(c3nc(N4CC(n5ccnc5)C4)nc4c(OCC(F)(F)F)c(-c5c(C)ccc6[nH]ncc56)c(C5CC5)cc34)CC2)C1 [Compound 41] | 6.00 to 6.52 | 50 to 90%
21 | C=CC(=O)N1CC2(CCN(c3nc(N4CC(n5cncn5)C4)nc4c(OCC(F)(F)F)c(-c5c(C)ccc6[nH]ncc56)c(C5CC5)cc34)CC2)C1 [Compound 42] | < 6.00 | 50 to 90%
22 | C=CC(=O)N1CC2(CCN(c3nc(N4CC(N5CC=CCC5)C4)nc4c(OCC(F)(F)F)c(-c5c(C)ccc6[nH]ncc56)c(C5CC5)cc34)CC2)C1 [Compound 43] | < 6.00 | 50 to 90%

Second part, led by results:

Row | pIC50 (H358 cells) | Structure (SMILES) | inhibition at 1 µM (pERK level in H358 cells)
23 | > 6.52 | C=CC(=O)N1CC2(CCN(c3nc(N4CC(CN(C)C)C4)nc4c(OCC(F)(F)F)c(-c5c(C)ccc6[nH]ncc56)c(C5CC5)cc34)CC2)C1 [Compound 1, 1-(7-(6-cyclopropyl-2-(3-((dimethylamino)methyl)azetidin-1-yl)-7-(5-methyl-1H-indazol-4-yl)-8-(2,2,2-trifluoroethoxy)quinazolin-4-yl)-2,7-diazaspiro[3.5]non-2-yl)prop-2-en-1-one] | > 90%
24 | > 6.52 | C=CC(=O)N1CC2(CCN(c3nc(N4CC(O)C4)nc4c(OCC(F)(F)F)c(-c5c(C)ccc6[nH]ncc56)c(C5CC5)cc34)CC2)C1 [Compound 2] | > 90%
25 | 6.00 to 6.52 | C=CC(=O)N1CC2(CCN(c3nc(N4CC(CO)C4)nc4c(OCC(F)(F)F)c(-c5c(C)ccc6[nH]ncc56)c(C5CC5)cc34)CC2)C1 [Compound 3] | 50 to 90%
26 | > 6.52 | C=CC(=O)N1CC2(CCN(c3nc(N4CC(CN(C)CCO)C4)nc4c(OCC(F)(F)F)c(-c5c(C)ccc6[nH]ncc56)c(C5CC5)cc34)CC2)C1 [Compound 4] | > 90%
27 | > 6.52 | C=CC(=O)N1CC2(CCN(c3nc(N4CC(CN5CCCC5)C4)nc4c(OCC(F)(F)F)c(-c5c(C)ccc6[nH]ncc56)c(C5CC5)cc34)CC2)C1 [Compound 7] | > 90%
28 | 6.00 to 6.52 | C=CC(=O)N1CC2(CCN(c3nc(N4CC(CN5CCOCC5)C4)nc4c(OCC(F)(F)F)c(-c5c(C)ccc6[nH]ncc56)c(C5CC5)cc34)CC2)C1 [Compound 8] | 50 to 90%
29 | > 6.52 | C=CC(=O)N1CC2(CCN(c3nc(N4CC(COC)C4)nc4c(OCC(F)(F)F)c(-c5c(C)ccc6[nH]ncc56)c(C5CC5)cc34)CC2)C1 [Compound 9] | > 90%
30 | > 6.52 | C=CC(=O)N1CC2(CCN(c3nc(N4CC(COC5CC5)C4)nc4c(OCC(F)(F)F)c(-c5c(C)ccc6[nH]ncc56)c(C5CC5)cc34)CC2)C1 [Compound 10] | > 90%
31 | > 6.52 | C=CC(=O)N1CC2(CCN(c3nc(N4CC(COC5CN(C)C5)C4)nc4c(OCC(F)(F)F)c(-c5c(C)ccc6[nH]ncc56)c(C5CC5)cc34)CC2)C1 [Compound 11] | > 90%
32 | > 6.52 | C=CC(=O)N1CC2(CCN(c3nc(N4CC(OC5CC5)C4)nc4c(OCC(F)(F)F)c(-c5c(C)ccc6[nH]ncc56)c(C5CC5)cc34)CC2)C1 [Compound 12] | > 90%
33 | > 6.52 | C=CC(=O)N1CC2(CCN(c3nc(N4CC(OC5CCC5)C4)nc4c(OCC(F)(F)F)c(-c5c(C)ccc6[nH]ncc56)c(C5CC5)cc34)CC2)C1 [Compound 13] | > 90%
34 | > 6.52 | C=CC(=O)N1CC2(CCN(c3nc(N4CC(OC5CCN(C)CC5)C4)nc4c(OCC(F)(F)F)c(-c5c(C)ccc6[nH]ncc56)c(C5CC5)cc34)CC2)C1 [Compound 15] | > 90%
35 | > 6.52 | C=CC(=O)N1CC2(CCN(c3nc(N4CCC(OC5CN(C)C5)CC4)nc4c(OCC(F)(F)F)c(-c5c(C)ccc6[nH]ncc56)c(C5CC5)cc34)CC2)C1 [Compound 16] | > 90%
36 | > 6.52 | C=CC(=O)N1CC2(CCN(c3nc(N4CC(OCC5CC5)C4)nc4c(OCC(F)(F)F)c(-c5c(C)ccc6[nH]ncc56)c(C5CC5)cc34)CC2)C1 [Compound 17] | > 90%
37 | > 6.52 | C=CC(=O)N1CC2(CCN(c3nc(N4CC(OCC5COC5)C4)nc4c(OCC(F)(F)F)c(-c5c(C)ccc6[nH]ncc56)c(C5CC5)cc34)CC2)C1 [Compound 18] | > 90%
38 | > 6.52 | C=CC(=O)N1CC2(CCN(c3nc(N4CC(OCC5CN(C)C5)C4)nc4c(OCC(F)(F)F)c(-c5c(C)ccc6[nH]ncc56)c(C5CC5)cc34)CC2)C1 [Compound 19] | > 90%
39 | 6.00 to 6.52 | C=CC(=O)N1CC2(CCN(c3nc(N4CC(N(C)CC#N)C4)nc4c(OCC(F)(F)F)c(-c5c(C)ccc6[nH]ncc56)c(C5CC5)cc34)CC2)C1 [Compound 20] | 50 to 90%
40 | > 6.52 | C=CC(=O)N1CC2(CCN(c3nc(N4CC(N(C)CCO)C4)nc4c(OCC(F)(F)F)c(-c5c(C)ccc6[nH]ncc56)c(C5CC5)cc34)CC2)C1 [Compound 21] | > 90%
41 | > 6.52 | C=CC(=O)N1CC2(CCN(c3nc(N4CC(N5CC[C@H](O)C5)C4)nc4c(OCC(F)(F)F)c(-c5c(C)ccc6[nH]ncc56)c(C5CC5)cc34)CC2)C1 [Compound 45] | > 90%

From patent US12391692B2, “Spiro ring-containing quinazoline compound” (WIGEN BIOMEDICINE TECHNOLOGY (SHANGHAI) CO., LTD., priority 2020, dated 2025)
